Columns and labels:
[1] = system: Italian ryegrass; experiment: Test A postemergence; type: in vivo, Lolium multiflorum
Method in brief: (§1)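 Visual injury rating, 0–100 (0 no effect, 100 complete control), vs untreated controls ~10 days after treatment in greenhouse. Pre: directed soil spray on seeded loam/sand. Post: 2–10 cm plants, 1–2 leaf stage. Formulation: non-phytotoxic solvent mix + surfactant.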

[2] = system: blackgrass; experiment: Test A postemergence; type: in vivo, Alopecurus myosuroides
Method in brief: as §1

[3] = system: nightshade; experiment: Test C preemergence; type: in vivo, Solanum ptycanthum
Excerpt: (§2) Seeds of plant species selected from blackgrass (Alopecurus myosuroides), ryegrass, Italian (Italian ryegrass, Lolium multiflorum), wheat (winter wheat, Triticum aestivum), galium (catchweed bedstraw, Galium aparine), corn (Zea mays), crabgrass, large (large crabgrass, Digitaria sanguinalis), foxtail, giant (giant foxtail, Setaria faberii), johnsongrass (Sorghum halepense), lambsquarters (Chenopodium album), morningglory (Ipomoea coccinea), nutsedge, yellow (yellow nutsedge, Cyperus esculentus), pigweed (redroot pigweed, Amaranthus retroflexus), ragweed (common ragweed, Ambrosia elation), soybean (Glycine max), barnyardgrass (Echinochloa crus-galli), oilseed rape (Brassica napus), waterhemp (common waterhemp, Amaranthus rudis), oat, wild (wild oat, Avena fatua), kochia (Kochia scoparia), Surinam grass (Brachiaria decumbens), foxtail, green (green foxtail, Setaria viridis), goosegrass (Eleusine indica), bromegrass, downy (downy bromegrass, Bromus tectorum), nightshade (eastern black nightshade, Solanum ptycanthum), cocklebur (common cocklebur, Xanthium strumarium), cupgrass, woolly (woolly cupgrass, Eriochloa villosa), bermudagrass (Cynodon dactylon), sunflower, (common oilseed sunflower, Helianthus annuus), Russian thistle (Salsola kali), and velvetleaf (Abutilon theophrasti) were planted into a blend of loam soil and sand and treated preemergence with test chemicals formulated in a non-phytotoxic solvent mixture which included a surfactant.
(§3) At the same time, plants selected from these crop and weed species and also chickweed (common chickweed, Stellaria media), canarygrass (littleseed canarygrass, Phalaris minor), and deadnettle (henbit deadnettle, Lamium amplexicaule), were planted in pots containing Redi-Earth® planting medium (Scotts Company, 14111 Scottslawn Road, Marysville, Ohio 43041) comprising spaghnum peat moss, vermiculite, wetting agent and starter nutrients and treated with postemergence applications of test chemicals formulated in the same manner. Plants ranged in height from 2 to 18 cm (1- to 4-leaf stage) for postemergence treatments. Treated plants and controls were maintained in a greenhouse for 13 to 15 days, after which time all species were compared to controls and visually evaluated. Plant response ratings, summarized in Table C, are based on a scale of 0 to 100 where 0 is no effect and 100 is complete control. A dash (-) response means no test result.

[4] = system: sunflower; experiment: Test C preemergence; type: in vivo, Helianthus annuus
Excerpt: as §2, §3

[5] = system: bermudagrass; experiment: Test C postemergence; type: in vivo, Cynodon dactylon; settings: for Bermudagrass plant response rating: scale 0 to 100
Excerpt: as §2, §3

[6] = system: canarygrass; experiment: Test C postemergence; type: in vivo, Phalaris minor; settings: for Canarygrass plant response rating: scale 0 to 100
Excerpt: as §2, §3

[7] = system: windgrass; experiment: Test C postemergence; type: in vivo, Apera spica-venti; settings: 250 g ai/ha, scale 0 to 100 (0 no effect, 100 complete control)
[8] = system: large crabgrass; experiment: Test F preemergence; type: in vivo, Digitaria sanguinalis
Excerpt: (§4) Seeds of plant species selected from corn (Zea mays), soybean (Glycine max), velvetleaf (Abutilon theophrasti), lambsquarters (Chenopodium album), wild poinsettia (Euphorbia heterophylla), pigweed, palmer (palmer pigweed, Amaranthus palmeri), common waterhemp (Amaranthus rudis), surinam grass (Brachiaria decumbens), large crabgrass (Digitaria sanguinalis), crabgrass, Brazil (Brazilian crabgrass, Digitaria horizontalis), fall panicum (Panicum dichotomiflorum), giant foxtail (Setaria faberii), green foxtail (Setaria viridis), goosegrass (Eleusine indica), johnsongrass (Sorghum halepense), common ragweed (Ambrosia elation), barnyardgrass (Echinochloa crus-galli), southern sandbur (Cenchrus echinatus), arrowleaf sida (Sida rhombifolia), Italian ryegrass (Lolium multiflorum), dayflower, VA (Virginia (VA) dayflower, Commelina virginica), field bindweed (Convolvulus arvensis), cocklebur (common cocklebur, Xanthium strumarium), morningglory (Ipomoea coccinea), nightshade (eastern black nightshade, Solanum ptycanthum), kochia (Kochia scoparia), yellow nutsedge (Cyperus esculentus), and hairy beggarticks (Bidens pilosa), were planted into a silt loam soil and treated preemergence with test chemicals formulated in a non-phytotoxic solvent mixture which included a surfactant.
(§5) At the same time, plants from these crop and weed species and also horseweed (Canada horseweed, Conyza canadensis), smartweed (ladysthumb smartweed, Polygonum persicaria), waterhemp_RES1, (ALS & Triazine resistant common waterhemp, Amaranthus rudis), and waterhemp_RES2, (ALS & HPPD resistant common waterhemp, Amaranthus rudis) were treated with postemergence applications of test chemicals formulated in the same manner. Plants ranged in height from 2 to 18 cm for postemergence treatments (1- to 4-leaf stage). Treated plants and controls were maintained in a greenhouse for 14 to 21 days, after which time all species were compared to controls and visually evaluated. Plant response ratings, summarized in Table F, are based on a scale of 0 to 100 where 0 is no effect and 100 is complete control. A dash (-) response means no test result.

[9] = system: dayflower, VA; experiment: Test F preemergence; type: in vivo, Commelina virginica
Excerpt: as §4, §5

[10] = Postemergence, 500 g ai/ha, 0 to 100 scale (0 no effect, 100 complete control)
[11] = postemergence, 125 g ai/ha, about 10 days, visual rating on 0 to 100 scale (0 no effect, 100 complete control)
[12] = preemergence, 31 g ai/ha, scale 0 to 100 (0 no effect, 100 complete control), 13 to 15 days
[13] = preemergence, 62 g ai/ha, 13 to 15 days, scale 0 to 100, 0 = no effect, 100 = complete control
[14] = preemergence, 125 g ai/ha, scale 0 to 100, 0 is no effect, 100 is complete control
[15] = postemergence, 250 g ai/ha, scale 0 to 100 (0 no effect, 100 complete control)
[16] = postemergence, 125 g ai/ha, scale 0 to 100, 0 no effect, 100 complete control
[17] = postemergence, 62 g ai/ha, scale 0 to 100, 0 no effect, 100 complete control
[18] = Preemergence, 62 g ai/ha, scale 0 to 100
[19] = Preemergence, 125 g ai/ha, scale 0 to 100
[20] = Preemergence, 250 g ai/ha, scale 0 to 100
[21] = preemergence, 16 g ai/ha, scale 0 to 100, 100 is complete control
[22] = Preemergence, 31 g ai/ha, scale 0 to 100
[23] = preemergence, 8 g ai/ha, scale 0 to 100, 100 is complete control

CCCc1cc(C(=O)NCC(F)(F)F)nn1Cc1ccnc(OC(F)F)c1 [Compound 127]
Italian Ryegrass plant response rating [1, 10]: 90
Italian Ryegrass plant response rating [1, 11]: 80
Blackgrass plant response rating [2, 10]: 90
Blackgrass plant response rating [2, 11]: 90

CCc1cc(C(=O)NOC(C)C)nn1Cc1ccnc(OC(F)F)c1 [Compound 126]
Italian Ryegrass plant response rating [1, 10]: 100
Italian Ryegrass plant response rating [1, 11]: 90
Blackgrass plant response rating [2, 10]: 90
Blackgrass plant response rating [2, 11]: 90

CCCNC(=O)c1cc(OCC)n(Cc2ccnc(OC(F)F)c2)n1 [Compound 136]
Italian Ryegrass plant response rating [1, 10]: 90
Italian Ryegrass plant response rating [1, 11]: 80
Blackgrass plant response rating [2, 10]: 100
Blackgrass plant response rating [2, 11]: 80

CCONC(=O)c1cc(CC)n(Cc2cccc(OC(F)(F)F)c2)n1 [Compound 72]
Plant response rating (scale of 0 to 100), Nightshade ([3]; Preemergence, 250 g ai/ha): 100
Nightshade plant response rating [3, 12]: 75
Plant response rating, Nightshade [3, 13]: 98
Nightshade plant response rating [3, 14]: 98
Plant response rating (scale of 0 to 100), Sunflower ([4]; Preemergence, 250 g ai/ha): 20
Sunflower plant response rating [4, 12]: 0
Plant response rating, Sunflower [4, 13]: 0
Sunflower plant response rating [4, 14]: 5
Bermudagrass plant response rating ([5]; Postemergence, 31 g ai/ha): 0
Bermudagrass plant response rating ([5]; postemergence, 62 g ai/ha): 0
Plant response rating, Bermudagrass [5, 15]: 20
Plant response rating, Bermudagrass [5, 16]: 15
Canarygrass plant response rating ([6]; Postemergence, 31 g ai/ha): 5
Canarygrass plant response rating ([6]; postemergence, 62 g ai/ha): 10
Plant response rating, Canarygrass [6, 15]: 30
Plant response rating, Canarygrass [6, 16]: 20
Plant response rating, Windgrass [7]: 30

CCCNC(=O)c1cc(CC)n(Cc2cccc(OC(F)(F)F)c2)n1 [Compound 27]
Bermudagrass plant response rating ([5]; Postemergence, 31 g ai/ha): 0
Plant response rating, Bermudagrass [5, 15]: 25
Plant response rating, Bermudagrass [5, 17]: 5
Plant response rating, Bermudagrass [5, 16]: 5
Canarygrass plant response rating ([6]; Postemergence, 31 g ai/ha): 5
Plant response rating, Canarygrass [6, 15]: 10
Plant response rating, Canarygrass [6, 17]: 5
Plant response rating, Canarygrass [6, 16]: 10
Plant response rating, Windgrass [7]: 45

CCCc1cc(C(=O)NC(C)C)nn1Cc1cc(C(F)(F)F)nn1C [Compound 201]
Plant response rating, Large Crabgrass [8, 18]: 70
Plant response rating, Large Crabgrass [8, 19]: 100
Plant response rating, Large Crabgrass [8, 20]: 100
Plant response rating, Large Crabgrass [8, 21]: 0
Plant response rating, Large Crabgrass ([8]; preemergence, scale 0 to 100, 100 is complete control): 35
Plant response rating, Dayflower, VA [9, 18]: 0
Plant response rating, Dayflower, VA [9, 19]: 35
Plant response rating, Dayflower, VA [9, 20]: 65
Plant response rating, Dayflower, VA [9, 21]: 0

CCc1cc(C(=O)NCC(F)(F)F)nn1Cc1cccc(OC(F)(F)F)c1 [Compound 20]
Bermudagrass plant response rating ([5]; Postemergence, 31 g ai/ha): 5
Plant response rating, Bermudagrass [5, 15]: 45
Plant response rating, Bermudagrass [5, 17]: 5
Plant response rating, Bermudagrass [5, 16]: 15
Canarygrass plant response rating ([6]; Postemergence, 31 g ai/ha): 5
Plant response rating, Canarygrass [6, 15]: 15
Plant response rating, Canarygrass [6, 17]: 10
Plant response rating, Canarygrass [6, 16]: 15
Plant response rating, Windgrass [7]: 45

CCc1cc(-c2ccc(C(F)(F)F)cc2)nn1Cc1ccnc(C(F)(F)F)c1 [Compound 110]
Plant response rating, Large Crabgrass [8, 22]: 10
Plant response rating, Large Crabgrass [8, 18]: 75
Plant response rating, Large Crabgrass [8, 19]: 85
Plant response rating, Large Crabgrass [8, 23]: 5
Plant response rating, Large Crabgrass [8, 21]: 5
Plant response rating, Dayflower, VA [9, 22]: 5
Plant response rating, Dayflower, VA [9, 18]: 10
Plant response rating, Dayflower, VA [9, 19]: 65
Plant response rating, Dayflower, VA [9, 23]: 0
Plant response rating, Dayflower, VA [9, 21]: 0

CCOc1cc(C(=O)NCC(F)(F)F)nn1Cc1ccnc(OC(F)F)c1 [Compound 128]
Italian Ryegrass plant response rating [1, 10]: 100
Italian Ryegrass plant response rating [1, 11]: 90
Blackgrass plant response rating [2, 10]: 100
Blackgrass plant response rating [2, 11]: 90

CCc1cc(C(=O)NCC(F)(F)F)nn1Cc1ccnc(Br)c1 [Compound 224]
Plant response rating, Large Crabgrass [8, 18]: 98
Plant response rating, Large Crabgrass [8, 19]: 100
Plant response rating, Large Crabgrass [8, 20]: 100
Plant response rating, Dayflower, VA [9, 18]: 0
Plant response rating, Dayflower, VA [9, 19]: 40
Plant response rating, Dayflower, VA [9, 20]: 85

CCCc1cc(C(=O)NC2CC2)nn1Cc1ccnc(OC(F)F)c1 [Compound 205]
Italian Ryegrass plant response rating ([1]; Postemergence, 125 g ai/ha, 0 to 100 scale, 0 no effect, 100 complete control): 70
Italian Ryegrass plant response rating [1, 10]: 100
Blackgrass plant response rating [2, 10]: 90
Blackgrass plant response rating [2, 11]: 70
